Measurements as given in publication PMC9255384 (Journal of medicinal chemistry, 2021).

System: Caco-2
Experiment: Monolayer Caco-2 permeability experiment
Format: in vitro ADME

Row | cellular permeability (Caco-2) | SMILES
1 | limited cellular permeability | CSc1nc(-c2cccc(NC(=O)c3c(F)ccc(O)c3CN3C(=O)c4ccccc4C3=O)c2)c(-c2ccnc(NC(C)=O)c2)[nH]1 [Compound 2c, N-(3-(5-(2-acetamidopyridin-4-yl)-2-(methylthio)-1H-imidazol-4-yl)phenyl)-2-((1,3-dioxoisoindolin-2-yl)methyl)-6-fluoro-3-hydroxybenzamide]
2 | limited cellular permeability | C=CC(=O)Nc1ccc(OC)c(Nc2cc(-c3[nH]c(SC)nc3-c3cccc(NC(=O)c4c(F)ccc(O)c4CN4C(=O)c5ccccc5C4=O)c3)ccn2)c1 [Compound 1, N-(3-(5-(2-((5-acrylamido-2-methoxyphenyl)amino)pyridin-4-yl)-2-(methylthio)-1H-imidazol-4-yl)phenyl)-2-((1,3-dioxoisoindolin-2-yl)methyl)-6-fluoro-3-hydroxybenzamide]
